One assay deals with open wounds. The assay can be described thus: Epithelialization and wound healing in mammals with open wounds. The class given is in vivo. Here is the method:
A following semi-solid preparation was prepared for the study which was obtained by mixing together: • 40% w/w Melittis melissophyllum L. from the whole plant, • 20% w/w of 96% ethyl alcohol, • 40% w/w Vaseline album—a hydrocarbon based substance used in lipophilic ointments.
The substance, etched by ethyl alcohol, is dissolved with help of heat in a smooth ointment medium for better dispersion ofbiologically active substances contained in the test extract. It could also be mixed in a cold lipophilic medium. It is important that the substance has been dissolved in the medium at the concentration below saturation.
In the study three groups of mammals with open wounds were involved:
I control group—no treatment was applied to the wound, even antiseptic one.
II group—a typical antiseptic agent was used, chlorhexidine, in accordance with a standard protocol regarding a treatment of an infected wound.
III group—the herbal preparation with a Melittis melissophyllum L. extract was used.
The herbal preparation applied in a treatment of open wounds. It was used in a similar way as described in Example I. The experiment confirmed that the herbal preparation based on Melittis melissophyllum L. definitely accelerates repair processes during the wound healing.

Assay [1] has as its system neutrophil white blood cells from the wound surface. As to the kind of experiment: Phagocytic activity of white blood cells (latex particles) from the healing wound surface. The class given is in vivo, mammals. Here is the method: Phagocytic activity of white blood cells was assessed using phagocytic index (PI)—a percentage of phagocytes containing absorbed latex particles, and an amount of phagocytes (IF)—the average number of particles per phagocyte.
The established phagocytic activity of neutrophil white blood cells from the wound surface in different periods of the wound healing, i.e. an increase in phagocytic index and number of phagocytes due to presence of the Melittis melissophyllum L. extract, is shown in Table 2. It was found for the first time that the Melittis melissophyllum L. extract has a high therapeutic activity during a wound healing period in all stages of the wound healing, accelerating the wound repair process and cells proliferation, therefore ensuring the complete wound healing much earlier.

Each structure is given as a SMILES string.

On to `[H]/N=C(\N/C(=N/[H])NCCCCCCNC(=N)NC(=N)Nc1ccc(Cl)cc1)Nc1ccc(Cl)cc1` [Chlorhexidine, chlorhexidine], for which the “complete epithelialization of the wound surface” value in the assay on open wounds is listed as 12-th or 13-th. In the assay with open wounds (topical), the Beginning epitelialization is 3.9 ± 0.4 24-hours, the “Beginning of rejection of the crust” value is 7.6 ± 0.5 24-hours, the Complete wound healing is listed as 11.25 ± 0.19 24-hours and the Full crust rejection is on record as 10.5 ± 0.3 24-hours. Moreover, in assay [1] (3 day after granulation), the “IF (amount of phagocytes, average number of particles per 1 phagocyte)” value worked out at 10.0 ± 2.5 and the “PI (phagocytic index, percentage of phagocytes containing latex particles)” value came out at 61.60 ± 9.49%. Moreover, in assay [1] (5 day after granulation), the “IF (amount of phagocytes, average number of particles per 1 phagocyte)” value is 14.0 ± 3.0 and the “PI (phagocytic index, percentage of phagocytes containing latex particles)” value amounted to 59.01 ± 4.58%. In assay [1] (7 day after granulation), the “IF (amount of phagocytes, average number of particles per 1 phagocyte)” value is on record as 11.0 ± 3.0 and the “PI (phagocytic index, percentage of phagocytes containing latex particles)” value is given as 48.20 ± 5.51%.

The values above are taken from patent US11058738B2, “Herbal preparation for accelerating wounds and skin inflammations healing, especially for treatment of herpes and acne, and its application” (WYŻSZA SZKOŁA MEDYCZNA W BIAŁYMSTOKU, priority 2015, dated 2021).
